# Assay results published in patent US20170050939A1, “SMALL MOLECULE INHIBITORS OF G PROTEIN COUPLED RECEPTOR 6 KINASE POLYPEPTIDES” (Mayo Foundation for Medical Education and Research, priority 2014, published 2017).
# Target: T1, GRK6, recombinant full-length GST-tagged human protein (Homo sapiens, UniProt P43250)
# T1 construct: GRK6, recombinant full-length GST-tagged human protein; GST
# Assay: GRK6 IC50 determination (8-point concentration-response)
# Assay type: biochemical
# Settings: not given
# Source text: Two hundred forty compounds were further characterized by determining IC50 values in a GRK6 assay. This screen has been previously described in WO 2013/063458, which is incorporated by reference in its entirety herein.
# T1 sequence (P43250 whole entry): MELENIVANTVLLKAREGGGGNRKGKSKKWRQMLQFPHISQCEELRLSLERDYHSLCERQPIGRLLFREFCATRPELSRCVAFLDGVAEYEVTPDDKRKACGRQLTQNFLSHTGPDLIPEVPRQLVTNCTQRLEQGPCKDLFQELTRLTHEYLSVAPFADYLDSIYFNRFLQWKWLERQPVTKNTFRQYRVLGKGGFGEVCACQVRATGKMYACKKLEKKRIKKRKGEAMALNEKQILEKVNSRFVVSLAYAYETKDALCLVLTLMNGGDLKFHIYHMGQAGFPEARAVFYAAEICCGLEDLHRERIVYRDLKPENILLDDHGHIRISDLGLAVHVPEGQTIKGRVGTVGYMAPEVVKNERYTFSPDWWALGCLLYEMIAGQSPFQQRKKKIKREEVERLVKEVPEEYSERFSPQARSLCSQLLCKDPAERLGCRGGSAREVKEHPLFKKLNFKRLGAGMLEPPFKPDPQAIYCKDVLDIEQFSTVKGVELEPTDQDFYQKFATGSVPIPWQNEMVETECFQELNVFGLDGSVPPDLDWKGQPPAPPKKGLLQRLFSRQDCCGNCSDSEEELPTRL
row,Compound,IC50 [µM]
1,O=C(O)CSc1nnc(-c2cccc(C(=O)Nc3cccc4[nH]ccc34)c2)[nH]1 [Compound 143],9.82
2,O=C(O)CSc1nnc(-c2cccc(C(=O)Nc3cccc4[nH]ncc34)c2)[nH]1 [Compound 146],11.4
3,O=C(O)CSc1nnc(-c2cccc(C(=O)Nc3ccc(Cl)cc3)c2)[nH]1 [Compound 148],11.7
4,O=C(O)CSc1nnc(-c2cccc(C(=O)Nc3ccccc3)c2)[nH]1 [Compound 149],11.8
5,O=C(O)CSc1nnc(-c2cccc(Oc3ccccc3)c2)[nH]1 [Compound 150],12.4
6,COc1cccc(NC(=O)c2cccc(-c3nnc(SCC(=O)O)[nH]3)c2)c1 [Compound 151],12.9
7,O=C(O)CSc1nnc(-c2cccc3cc[nH]c23)[nH]1 [Compound 153],13.4
8,O=C(O)CSc1nnc(-c2ccc3c(c2)OCCO3)[nH]1 [Compound 154],13.4
9,Cc1cccc(-c2nnc(SCC(=O)O)[nH]2)c1 [Compound 156],14.4
10,O=C(O)CSc1nnc(-c2cccc(C(=O)Nc3ccc4c(c3)NC(=O)CC4)c2)[nH]1 [Compound 160],17.3
11,O=C(O)CSc1nnc(-c2cccc(C(=O)Nc3ccc4ncccc4c3)c2)[nH]1 [Compound 161],17.5
12,O=C(O)CSc1nnc(-c2cccc3c2OCO3)[nH]1 [Compound 164],18.5
13,CN1CCOc2cc(-c3nnc(SCC(=O)O)[nH]3)ccc21 [Compound 166],20.2
14,CNC(=O)c1cccc(NC(=O)c2cccc(-c3nnc(SCC(=O)O)[nH]3)c2)c1 [Compound 167],20.4
15,COc1ccc(NC(=O)c2cccc(-c3nnc(SCC(=O)O)[nH]3)c2)cc1 [Compound 170],21.3
16,O=C(O)CSc1nnc(-c2cccc3ccccc23)[nH]1 [Compound 174],28.1
17,O=C(O)CSc1nnc(-c2cccc3cnccc23)[nH]1 [Compound 175],29.6
18,O=C(O)CSc1nnc(-c2cccc(C(=O)NCc3ccccc3)c2)[nH]1 [Compound 176],33.3
19,O=C(O)CSc1nnc(-c2cccc(C(=O)Nc3cccnc3)c2)[nH]1 [Compound 177],34
20,O=C(O)CSc1nnc(-c2cccc(C(=O)Nc3ccccc3Cl)c2)[nH]1 [Compound 186],47.8

row,Compound,IC50 [µM]
1,CC(C)Oc1ccc(-c2nnc(SCC(=O)O)[nH]2)cc1N [Compound 190],80.6
2,CC(C)Oc1ccc(-c2nnc(SCC(=O)O)n2CC(=O)O)cc1[N+](=O)[O-] [Compound 193],> 200
3,O=C(O)CSc1nnc(-c2cccc3c2OCCCO3)[nH]1 [Compound 197],> 100
4,O=C(O)CS(=O)(=O)c1nnc(-c2ccccc2)[nH]1 [Compound 210],> 100
5,O=C(O)CSc1nnc(-c2cc3c(cc2[N+](=O)[O-])OCO3)[nH]1 [Compound 212],> 58
6,O=C(O)CSc1nnc(-c2c(O)ccc3ccccc23)[nH]1 [Compound 224],> 80
7,Cn1cc(Cl)c2cc(-c3cc(-c4n[nH]c(SCC(=O)O)n4)cc([N+](=O)[O-])c3)ccc21 [Compound 227],0.06
8,NC(=O)c1cc2cc(-c3cc(-c4n[nH]c(SCC(=O)O)n4)cc([N+](=O)[O-])c3)ccc2[nH]1 [Compound 228],0.101
9,Cn1ccc2cc(-c3cc(-c4n[nH]c(SCC(=O)O)n4)cc([N+](=O)[O-])c3)cc(Cl)c21 [Compound 229],0.114
10,Cc1cn(C)c2ccc(-c3cc(-c4nnc(SCC(=O)O)[nH]4)cc([N+](=O)[O-])c3)cc12 [Compound 230],0.15
11,Cc1cc(-c2cc(-c3nnc(SCC(=O)O)[nH]3)cc([N+](=O)[O-])c2)cc2ccn(C)c12 [Compound 231],0.15
12,N#Cc1cc2cc(-c3cc(-c4nnc(SCC(=O)O)[nH]4)cc([N+](=O)[O-])c3)ccc2[nH]1 [Compound 232],0.184
13,O=C(O)CSc1nnc(-c2cc(-c3cc(Cl)c4ccccc4c3)cc([N+](=O)[O-])c2)[nH]1 [Compound 233],0.209
14,Cc1cc2cc(-c3cc(-c4nnc(SCC(=O)O)[nH]4)cc([N+](=O)[O-])c3)ccc2n1C [Compound 234],0.267
15,Cc1c(-c2cc(-c3nnc(SCC(=O)O)[nH]3)cc([N+](=O)[O-])c2)ccc2[nH]c(C(N)=O)cc12 [Compound 235],0.358
16,Cc1c(-c2cc(-c3nnc(SCC(=O)O)[nH]3)cc([N+](=O)[O-])c2)ccc2[nH]c(C#N)cc12 [Compound 236],0.402
17,O=C(O)CSc1nnc(-c2cc(-c3cccc4c3oc3ccccc34)cc([N+](=O)[O-])c2)[nH]1 [Compound 237],0.438
18,Cc1ccc2cc(-c3cc(-c4nnc(SCC(=O)O)[nH]4)cc([N+](=O)[O-])c3)ccc2c1 [Compound 238],0.442
19,Cn1ccc2cc(-c3cc(-c4nnc(SCC(=O)O)[nH]4)cc(C(F)(F)F)c3)ccc21 [Compound 239],0.729
20,O=C(O)CSc1nnc(-c2cc(-c3ccc4c(c3)[nH]c3ccccc34)cc([N+](=O)[O-])c2)[nH]1 [Compound 240],0.93

# Same assay, conditions: 20 nM GRK6, 12 μM ATP (Km), 1 μM Peptide 216, 7 h incubation
row,Compound,IC50 [µM]
1,CCSc1ccc(-c2nnc(SCC(=O)O)[nH]2)cc1 [Compound 141],8.84
2,COC(=O)c1ccc(-c2nnc(SCC(=O)O)[nH]2)cc1 [Compound 142],9.56
3,COc1cc(-c2nnc(SCC(=O)O)[nH]2)ccc1OC(C)=O [Compound 144],9.9
4,O=C(O)CSc1nnc(-c2cccc(F)c2F)[nH]1 [Compound 145],10.7
5,O=C(O)CSc1nnc(-c2ccc(O)cc2O)[nH]1 [Compound 147],11.6
6,COc1ccc(-c2nnc(SCC(=O)O)[nH]2)cc1O [Compound 152],13.3
7,O=C(O)CSc1nnc(-c2ccc(N3CCCC3=O)cc2)[nH]1 [Compound 157],15.4
8,COc1cc(-c2nnc(SCC(=O)O)[nH]2)cc([N+](=O)[O-])c1O [Compound 158],15.9
9,O=C(O)CSc1nnc(-c2cccc(Cn3cccn3)c2)[nH]1 [Compound 159],16.2
10,C[S+]([O-])c1cccc(-c2nnc(SCC(=O)O)[nH]2)c1 (centres unmarked) [Compound 162],17.5
11,COc1ccc(F)c(-c2nnc(SCC(=O)O)[nH]2)c1 [Compound 163],18.3
12,CNS(=O)(=O)c1cccc(-c2nnc(SCC(=O)O)[nH]2)c1 [Compound 165],18.9
13,COc1cc(-c2nnc(SCC(=O)O)[nH]2)cc(O)c1OC [Compound 168],20.7
14,COc1ccc(-c2nnc(SCC(=O)O)[nH]2)c(O)c1 [Compound 169],20.9
15,O=C(O)CSc1nnc(-c2cccc(N3CCNCC3)c2)[nH]1 [Compound 171],21.9
16,COc1cc(F)c(-c2nnc(SCC(=O)O)[nH]2)cc1OC [Compound 172],23.7
17,CCN(CC)c1ccc(-c2nnc(SCC(=O)O)[nH]2)c(O)c1 [Compound 173],25.8
18,CN(CCC#N)c1ccc(-c2nnc(SCC(=O)O)[nH]2)cc1 [Compound 179],35.3
19,O=C(O)CSc1nnc(-c2ccc(N3CCCCC3)cc2F)[nH]1 [Compound 180],35.7
20,COc1cc(F)c(-c2nnc(SCC(=O)O)[nH]2)c(F)c1 [Compound 181],38.5
21,O=C(O)CSc1nnc(-c2ccc(OC3CCNCC3)cc2)[nH]1 [Compound 182],40
22,CN(C)c1ccc(-c2nnc(SCC(=O)O)[nH]2)c([N+](=O)[O-])c1 [Compound 183],40
23,CN(C)Cc1ccc(-c2nnc(SCC(=O)O)[nH]2)cc1 [Compound 184],40
24,Cc1cc(C=O)c(O)c(-c2nnc(SCC(=O)O)[nH]2)c1 [Compound 185],45.3
25,O=C(O)CSc1nnc(-c2cccc(N3CCCCC3)c2)[nH]1 [Compound 187],51.8
26,CSc1ccccc1-c1nnc(SCC(=O)O)[nH]1 [Compound 188],74.1
27,O=C(O)CSc1nnc(-c2cc(C(=O)O)ccc2F)[nH]1 [Compound 191],81.7
28,COc1ccc(Br)cc1-c1nnc(SCC(=O)O)[nH]1 [Compound 192],87
